This is an account of results in patent US20250235418A1, “Butyrate Analogues and Methods of Use for HIF Stabilization and Treatment of Bowel Disease” (THE REGENTS OF THE UNIVERSITY OF COLORADO, A BODY CORPORATE, priority 2022, published 2025).

For series [1], the system named is HIF-1α / PHDs in murine colon. Put plainly: tributyrin oral gavage with or without MCPA in antibiotic SCFA-depleted mice. The series is classed as in vivo. Here is the method:
We next confirmed that butyrate functions as a PHD inhibitor in vivo through antibiotic-mediated depletion of the gut microbiota and SCFAs in mice. […] We administered tributyrin (200 μL), a prodrug of butyrate composed of a glycerol backbone with three butyrate moieties, to SCFA-depleted mice via oral gavage every day for three days with glycerol as a control. Additionally, some mice given tributyrin were subjected with a rectal gavage of 60 mM MCPA to inhibit butyrate metabolism 4 h prior to sacrifice. […] 60 mM MCPA was chosen as a well-tolerated dose that inhibited β-oxidation in mice and rats. […] HIF-la protein was also diminished in epithelial scrapings (FIG. 8B) and whole colon tissue (FIG. 8C) with antibiotic treatment, which was also rescued with tributyrin supplementation with or without MCPA. […] The stabilization of HIF-1α in whole colon tissue also is in agreement with our findings in HMEC-1 and A549 cells that PHD inhibition by butyrate expands to beyond just IECs alone.

For series [2] the following is noted: oral gavage, 1 h after dosing, mice; cited from earlier work.
[3] abbreviates: tributyrin with or without MCPA.

Regarding `CCCC(=O)OCC(COC(=O)CCC)OC(=O)CCC` [tributyrin], the “HIF-1α protein after antibiotic depletion” value in series [1] (epithelial scrapings and whole colon tissue, tributyrin with or without MCPA) is “rescued”. In addition, in series [1] (setting [3]), the “colon tissue 2-OG levels after antibiotic depletion” value was “recovered” and the “colon tissue butyrate levels after antibiotic depletion” value is listed as “rescued”. Moreover, in series [1] (whole colon tissue and epithelial scrapings, tributyrin 200 μL oral gavage 3 d, with or without MCPA), the “HIF-1α target gene Bnip3l mRNA after antibiotic depletion” value was “normalized”. The plasma butyrate concentration in series [2] was above 1 mM.
